Patent US20090134028A1, “Method of Estimating Effect of Test Chemical on Living Organisms” (Chemicals Evaluation and Research Institute, priority 2005, published 2009)
Like-named read-outs stand apart in the source and are kept apart here.

Experiments:
[1] = system: liver cell; conditions: rat, in vivo
[2] = Prediction of liver cell hypertrophy using SVM from post-translational modification data; parameters: species or system rat
[3] = cited from earlier work
[4] = system: rat liver protein; assay: Two-dimensional gel electrophoresis of liver proteins after 28-day oral administration: difference of log2(αx/αc) between spots derived from one protein; type: in vivo; conditions: oral 28 days
Method: 5-Weeks old male rats (F344, SPF strain) obtained from Charles River Laboratories Japan Inc. were divided into groups each consisting of three rats. To the rats of each chemical dosed group was forcibly administered orally a solution obtained by dissolving one of the chemicals shown in Tables 1 to 3, and to the rats of a vehicle control group was forcibly administered orally only a vehicle. The administration was conducted once a day for 28 days. On the 29th day from the start of administration, the liver of each rat was collected. A fragment was cut out from each liver and stored at −20° C. The protein collected from each rat was determined quantitatively by the Bradford method. Then, to the comparative sample collected from the chemical dosed group, the control sample collected from the vehicle control group, and a pool sample (which was a mixture of the comparative sample and the control sample) were added, at 0° C., Cy5, Cy3 and Cy2 (DMF solution, 1 ml) each of 200 pmol per […] of protein, and a labeling reaction was allowed to take place on ice for 30 minutes. After the completion of the reaction, an excessive amount of a Lysine solution (10 mM Lysis buffer solution, 1 ml) was added, followed by storage for 10 minutes to complete the reaction. Further, a x2 sample buffer [8 M urea, 4% (w/v) CHAPS, 20 mg/ml DTT, 2% (v/v) Pharmalytes] of same volume was added, followed by storage on ice for 10 minutes.
Then, the mixture of the resulting samples or each resulting sample was individually subjected to two-dimensional gel electrophoresis.
First-dimensional electrophoresis was conducted in Multiphor II (GE Helthcare Uk Ltd. Buckinghamshire, UK) using IPG (Immobilized pH Gradient) Strips (24 cm, pI3-10L) (GE Helthcare UK Ltd. Buckinghamshire, UK). A sample ([…] of protein) was added from a cup loading holder. Focussing was conducted by 40 kVh in total. After the electrophoresis, equilibration was made for 10 minutes each using a solution A obtained by adding 0.25% (w/v) of DTT to an equilibrating solution (50 mM Tris, pH 8.8, 6 M urea, 30% glycerol, 2% SDS) and a solution B obtained by adding 4.5% (w/v) of iodoacetamide to the equilibrating solution. Successively, second-dimensional electrophoresis was conducted in an Ettan DALT II system (GE Helthcare UK Ltd. Buckinghamshire, UK) using a self-made 12% uniform gel sandwiched between low-fluorescent glasses. Migration was conducted at 3 W (15° C.) overnight.
For each gel after migration, image capture was immediately conducted using Master Imager (GE Helthcare UK Ltd. Buckinghamshire, UK), at a wavelength corresponding to each Cy. The excitation wavelengths of Cy5, Cy3 and Cy2 were set at 625 nm, 480 nm and 425 nm, respectively, and their fluorescence wavelengths were set at 680 nm, 540 nm and 480 nm, respectively.
In the case of the sample obtained by mixing before electrophoresis, the recognition of spots of captured image and the quantitative determination and comparison between Cys in one gel were conducted using Decyder-DIA Soft (GE Helthcare UK Ltd. Buckinghamshire, UK). The matching of spots with the reference map of rat liver protein (2-D data base formed in-house by identifying rat liver 724 spots) was conducted using Decyder-BVA soft (GE Helthcare UK Ltd. Buckinghamshire, UK). When each sample after Cy labeling was independently subjected to electrophoresis, the quantitative determination of each spot and the matching of spots were conducted using PDQuest (Bio-Rad Laboratories, Inc.).
For the spots of the 127 proteins and their modified proteins, there was calculated a base 2 logarithm [log2(αx/αc)] of the ratio (αx/αc) of the expression amount (αx) of the comparative sample and the expression amount (αc) of the control sample. Then, a difference in logarithms was calculated between spots derived from one protein. The calculation of difference in logarithms was made for all combinations of spots derived from one protein. […]

[5] = SVM prediction of liver cell hypertrophy, training set, top-ranked 20 sets of post-translational modification data

## ClC(Cl)(Cl)Cl [Carbon tetrachloride]
[1]
  Finding of hepatocyte hypertrpy: −
  pathology of liver cell hypertrophy in the liver: no pathology of liver cell hypertrophy was seen
[2]
  Prediction result: −1 CORRECT
[3]; in vivo
  Carcinogenicity: +

## OC[C@@H](O)[C@@H](O)[C@H](O)[C@H](O)CO [D-mannitol]
[1]
  Finding of hepatocyte hypertrpy: −
  pathology of liver cell hypertrophy in the liver: no pathology of liver cell hypertrophy was seen
[2]; [5]
  Prediction result: −1 CORRECT
[3]; known carcinogenicity of chemical, Tables 1 to 3
  Carcinogenicity: −
[3]; known carcinogenicity of chemical, Tables 8 to 11
  Carcinogenicity: −

## CCCCC(CC)COC(=O)c1ccccc1C(=O)OCC(CC)CCCC (stereo not drawn) [Di(2-ethylhexyl)phthalate]
[1]
  Finding of hepatocyte hypertrpy: +
  pathology of liver cell hypertrophy in the liver: pathology of liver cell hypertrophy was seen
[2]; [5]
  Prediction result: −1 (−1 and 1 indicates the incorrectly predicted compounds)
[3]; in vivo
  Carcinogenicity: +

## CCN(CC)N=O [Diethylnitrosamine]
[1]
  Finding of hepatocyte hypertrpy: −
  pathology of liver cell hypertrophy in the liver: no pathology of liver cell hypertrophy was seen
[2]
  Prediction result: −1 CORRECT
[3]; in vivo
  Carcinogenicity: +

## c1ccoc1 [Furan]
[1]
  Finding of hepatocyte hypertrpy: +
  pathology of liver cell hypertrophy in the liver: pathology of liver cell hypertrophy was seen
[2]
  Prediction result: −1
[3]; in vivo
  Carcinogenicity: +

## IC(I)I [Iodoform]
[1]
  Finding of hepatocyte hypertrpy: +
[2]; [5]
  Prediction result: +1 CORRECT
[3]; in vivo
  Carcinogenicity: −

## O=NN1CCOCC1 [N-nitrosomorpholine]
[4]; ATP synthase alpha chain, spots 1064-1096, absolute value
  Difference of log2(αx/αc): 1.824
[4]; Carbonate dehydrogenase III, spots 2098-2113, absolute value
  Difference of log2(αx/αc): 1.038
[4]; Cytoskeleton I type keratin-19, spots 1174-1447, absolute value
  Difference of log2(αx/αc): 1.451
[4]; Cytoskeleton II type keratin-8, spots 1068-1481, absolute value
  Difference of log2(αx/αc): 1.344
[4]; Heat shock protein 60 kDa, spots 941-974, absolute value
  Difference of log2(αx/αc): 1.910
[4]; Hydroxyglutaryl-CoA synthase, spots 1215-1216, absolute value
  Difference of log2(αx/αc): 0.948
[4]; MAWD binding protein, spots 2032-2036, absolute value
  Difference of log2(αx/αc): 1.256
[4]; Non-muscle type caldesmon, spots 628-654, absolute value
  Difference of log2(αx/αc): 1.618
[4]; RIKEN cDNA 0610010D20, spots 1708-1753, absolute value
  Difference of log2(αx/αc): 1.349
[4]; Transketorase, spots 789-813, absolute value
  Difference of log2(αx/αc): 1.074
[1]
  Finding of hepatocyte hypertrpy: −
  pathology of liver cell hypertrophy in the liver: no pathology of liver cell hypertrophy was seen
[2]
  Prediction result: −1 CORRECT
[3]; in vivo
  Carcinogenicity: +

## c1ccc2ncccc2c1 [Quinoline]
[1]
  Finding of hepatocyte hypertrpy: −
  pathology of liver cell hypertrophy in the liver: no pathology of liver cell hypertrophy was seen
[2]; [5]
  Prediction result: −1 CORRECT
[3]; in vivo
  Carcinogenicity: +

## C=CCc1ccc2c(c1)OCO2 [Safrole]
[1]
  Finding of hepatocyte hypertrpy: +
  pathology of liver cell hypertrophy in the liver: pathology of liver cell hypertrophy was seen
[2]
  Prediction result: +1 CORRECT
[3]; in vivo
  Carcinogenicity: +

## ClC=C(Cl)Cl [Trichloroethylene]
[1]
  Finding of hepatocyte hypertrpy: −
  pathology of liver cell hypertrophy in the liver: no pathology of liver cell hypertrophy was seen
[2]
  Prediction result: −1 CORRECT
[3]; in vivo
  Carcinogenicity: +

## Cl[C@H]1[C@H](Cl)[C@H](Cl)[C@@H](Cl)[C@H](Cl)[C@H]1Cl [α-Hexachlorocyclohexane]
[1]
  Finding of hepatocyte hypertrpy: +
  pathology of liver cell hypertrophy in the liver: pathology of liver cell hypertrophy was seen
[2]
  Prediction result: +1 CORRECT
[3]; in vivo
  Carcinogenicity: +
